One data set concerns the target T1, p38α (Homo sapiens, UniProt Q16539).
T1 construct: c-myc (N); 6His (N); made in house; host or cells: E. coli (PET vectors)
The experiment in a line: In vitro enzyme assay, p38α isoform. The format is biochemical. The conditions noted are these: read-out: IC50 against p38α. The procedure: The ability of compounds of the invention to inhibit the enzyme p38 kinase was assessed. Activity of particular test compounds against each of the p38α and p38β isoforms of the enzyme was determined.
Human recombinant MKK6 (GenBank Accesion Number G1209672) was isolated from Image clone 45578 (Genomics, 1996, 33, 151) and utilised to produce protein in the form of a GST fusion protein in a pGEX vector using analogous procedures to those disclosed by J. Han et al., Journal of Biological Chemistry, 1996, 271, 2886-2891, p38α (GenBank Accession Number G529039) and p38β (GenBank Accession Number G1469305) were isolated by PCR amplification of human lymphoblastoid cDNA (GenBank Accession Number GM1416) and human foetal brain cDNA [synthesised from mRNA (Clontech, catalogue no. 6525-1) using a Gibco superscript cDNA synthesis kit] respectively using oligonucleotides designed for the 5′ and 3′ ends of the human p38α and p38β genes using analogous procedures to those described by J. Han et al., Biochimica et Biophysica Acta, 1995, 1265, 224-227 and Y. Jiang et al. Journal of Biological Chemistry 1996, 271, 17920-17926.
Both p38 protein isoforms were expressed in e coli in PET vectors. Human recombinant p38α and p38β isoforms were produced as 5′ c-myc, 6His tagged proteins. Both MKK6 and the p38 proteins were purified using standard protocols: the GST MKK6 was purified using a glutathione sepharose column and the p38 proteins were purified using nickel chelate columns.
The p38 enzymes were activated prior to use by incubation with MKK6 for 3 hours at 30° C. The unactivated coli-expressed MKK6 retained sufficient activity to fully activate both isoforms of p38. The activation incubate comprised p38α (10 μl of 10 mg/ml) or p38β (10 μl of 5 mg/ml) together with MKK6 (1 μl of 1 mg/ml), ‘Kinase buffer’ [100 μl; pH 7.4 buffer comprising Tris (50 mM), EGTA (0.1 mM), sodium orthovanadate (0.1 mM) and β-mercaptoethanol (0.1%)] and MgATP (30 μl of 50 mM Mg(OCOCH3)2 and 0.5 mM ATP). This produced enough activated p38 enzyme for 3 Microtiter plates.
Test compounds were solubilised in DMSO and 10 μl of a 1:10 diluted sample in ‘Kinase Buffer’ was added to a well in a Microtiter plate. For single dose testing, the compounds were tested at 10 μM. ‘Kinase Assay Mix’ [30 μl; comprising Myelin Basic Protein (Gibco BRL cat. no. 1322B-010; 1 ml of a 3.33 mg/ml solution in water), activated p38 enzyme (50 μl) and ‘Kinase Buffer’ (2 ml)] was then added followed by ‘Labelled ATP’ [10 μl; comprising 50 μM ATP, 0.1 μCi ^33P ATP (Amersham International cat. no. BF1000) and 50 mM Mg(OCOCH3)2]. The plates were incubated at room temperature with gentle agitation. Plates containing p38α were incubated for 90 min and plates containing p38β were incubated for 45 min. Incubation was stopped by the addition of 50 μl of 20% trichloroacetic acid (TCA). The precipitated protein was phosphorylated by p38 kinase and test compounds were assessed for their ability to inhibit this phosphorylation. The plates were filtered using a Canberra Packard Unifilter and washed with 2% TCA, dried overnight and counted on a Top Count scintillation counter.
(§1) Test compounds were tested initially at a single dose and active compounds were retested to allow IC50 values to be determined.

In data set [1] the test system is TNFα production by human peripheral blood mononuclear cells. The experiment in a line: PBMC test: TNFα production after lipopolysaccharide stimulation. In kind it is cell-based. Particulars: LPS-stimulated TNFα production. The procedure:
The ability of compounds of this invention to inhibit TNFα production was assessed by using human peripheral blood mononuclear cells which synthesise and secrete TNFα when stimulated with lipopolysaccharide.
Peripheral blood mononuclear cells (PBMC) were isolated from heparinised (10 units/ml heparin) human blood by density centrifugation (Lymphoprep™; Nycomed). Mononuclear cells were resuspended in culture medium [RPMI 1640 medium (Gibco) supplemented with 50 units/ml penicillin, 50 μg/ml streptomycin, 2 mM glutamine and 1% heat-inactivated human AB serum (Sigma H-1513)]. Compounds were solubilised in DMSO at a concentration of 50 mM, diluted 1:100 in culture medium and subsequently serial dilutions were made in culture medium containing 1% DMSO. PBMCs (2.4×10^5 cells in 160 μl culture medium) were incubated with 20 μl of varying concentrations of test compound (triplicate cultures) or 20 μl culture medium containing 1% DMSO (control wells) for 30 minutes at 37° C. in a humidified (5%CO2/95% air) incubator (Falcon 3072; 96 well flat-bottom tissue culture plates). 20 μl lipopolysaccharide [LPS E.Coli 0111:B4 (Sigma L-4130), final concentration 10 μg/ml] solubilised in culture medium was added to appropriate 30 wells. 20 μl culture medium was added to “medium alone” control wells. Six “LPS alone” and four “medium alone” controls were included on each 96 well plate. Varying concentrations of a known TNFα inhibitor were included in each test, i.e. an inhibitor of the PDE Type IV enzyme (for example see Semmler, J. Wachtel. H and Endres. S., Int. J. Immunopharmac. (1993), 15(3), 409-413) or an inhibitor of proTNFα convertase (for example, see McGeehan, G. M. et al. Nature (1994) 370, 558-561). Plates were incubated for 7 hours at 37° C. (humidified incubator) after which 100 μl of the supernatant was removed from each well and stored at −70° C. (96 well round-bottom plates; Corning 25850). TNFα levels were determined in each sample using a human TNFα ELISA (see WO92/10190 and Current Protocols in Molecular Biology, vol 2 by Frederick M. Ausbel et al., John Wiley and Sons Inc.). [formula]

In another data set the test system is p38 kinase. In words: In vitro enzyme assay, p38 kinase (isoform not specified, or p38α and/or p38β). The format is biochemical, human. Particulars: result in words. On the procedure:
The ability of compounds of the invention to inhibit the enzyme p38 kinase was assessed. Activity of particular test compounds against each of the p38α and p38β isoforms of the enzyme was determined. […]
Test compounds were solubilised in DMSO and 10 μl of a 1:10 diluted sample in ‘Kinase Buffer’ was added to a well in a Microtiter plate. […] The precipitated protein was phosphorylated by p38 kinase and test compounds were assessed for their ability to inhibit this phosphorylation. The plates were filtered using a Canberra Packard Unifilter and washed with 2% TCA, dried overnight and counted on a Top Count scintillation counter.
as §1

The values below come from patent US6686467B2, “Amide derivatives for the treatment of diseases mediated by cytokines” (Zeneca Limited, priority 1997, dated 2004).

The term melting point denotes the temperature of the solid-liquid transition. What is called IC50 is the point on the concentration scale where inhibition reaches its midpoint.

T1 sequence (Q16539 whole entry): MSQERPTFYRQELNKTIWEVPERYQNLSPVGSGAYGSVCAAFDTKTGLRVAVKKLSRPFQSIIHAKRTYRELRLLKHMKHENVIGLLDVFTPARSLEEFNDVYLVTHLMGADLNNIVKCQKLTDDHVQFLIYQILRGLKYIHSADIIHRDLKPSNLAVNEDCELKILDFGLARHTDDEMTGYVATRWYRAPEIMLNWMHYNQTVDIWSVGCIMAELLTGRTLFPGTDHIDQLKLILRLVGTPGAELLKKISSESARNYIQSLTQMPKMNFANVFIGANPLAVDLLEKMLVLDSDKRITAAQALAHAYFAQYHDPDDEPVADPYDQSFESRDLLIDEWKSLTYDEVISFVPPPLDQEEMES

Compound `Cc1ccc(NC(=O)CCCC2CCCCC2)cc1NC(=O)c1ccc(O)cc1` [N-[5-(4-Cyclohexylbutyrylamino)-2-methylphenyl]-4-hydroxybenzamide] showed a melting point of 159 to 160 °C. The same measure, in the same setting: then `COc1ccc(C(=O)Nc2cc(NC(=O)c3cccc(O)c3)ccc2C)cc1OC` [Example 11, N-[5-(3-hydroxybenzamido)-2-methylphenyl]-3,4-dimethoxybenzamide], with 182 to 183 °C.

The compound `Cc1ccc(NC(=O)c2cccc(N(C)C)c2)cc1NC(=O)c1ccccc1O` [Example 30, N-[5-(3-dimethylaminobenzamido)-2-methylphenyl]-2-hydroxybenzamide] displayed a melting point of 234 to 238 °C.

Consider `Cc1ccc(NC(=O)c2c(F)cccc2Cl)cc1NC(=O)c1ccc(O)cc1` [Example 9, Compound No. 12], for which the figures for the IC50 (at p38α; in data set [1]) were about 1700 nM and about 22000 nM, respectively. Take `Cc1ccc(NC(=O)CCC2CCCC2)cc1NC(=O)c1ccc(O)cc1` [N-[5-(3-cyclopentylpropionamido)-2-methylphenyl]-4-hydroxybenzamide]: the 50% inhibitory concentration (IC50) on p38α is about 6000 nM. With `COc1ccc(C(=O)Nc2cc(NC(=O)c3cccc(N(C)C)c3)ccc2C)cc1OC` [Example 9, Compound No. 7, N-[5-(3-dimethylaminobenzamido)-2-methylphenyl]-3,4-dimethoxybenzamide], the results for the IC50 (at p38α; in data set [1]) were about 200 nM and about 7000 nM, respectively.

`Cc1ccc(NC(=O)c2cccc(N3CCOCC3)c2)cc1NC(=O)c1cccc(N2CCOCC2)c1` [Example 9, Compound No. 50, N-[2-methyl-5-(3-morpholinobenzamido)phenyl]-3-morpholinobenzamide]: the IC50 was about 40 nM at p38α and about 1500 nM in data set [1]. Take `Cc1ccc(NC(=O)CCC2CCCCC2)cc1NC(=O)c1ccc(O)cc1` [N-[5-(3-cyclohexylpropionamido)-2-methylphenyl]-4-hydroxybenzamide]: the IC50 on p38α was about 400 nM; in data set [1], about 7000 nM. Turning to `COc1ccc(C(=O)Nc2cc(NC(=O)c3cccc(NC(C)=O)c3)ccc2C)cc1OC` [Example 33, N-[5-(3-acetamidobenzamido)-2-methylphenyl]-3,4-dimethoxybenzamide], the melting point was in the range of 187 to 188 °C. Compound `COc1ccc(C(=O)Nc2cc(NC(=O)c3cccc(N)c3)ccc2C)cc1OC` [Example 13, N-[5-(3-aminobenzamido)-2-methylphenyl]-3,4-dimethoxybenzamide] had a melting point of 179 to 180 °C. Besides, the IC50 on p38α was about 700 nM. In addition, the concentration for half-maximal inhibition (IC50) in data set [1] is about 7000 nM. In the case of `Cc1ccc(NC(=O)c2ccccc2)cc1NC(=O)c1cccc(CN2CCN(C)CC2)c1` [Example 9, Compound No. 51, N-(5-benzamido-2-methylphenyl)-3-(4-methylpiperazin-1-yl)methylbenzamide], the values for the IC50 (at p38α; in data set [1]) were about 700 nM and about 3000 nM, respectively. Consider `Cc1ccc(NC(=O)c2cccc(N(C)C)c2)cc1NC(=O)c1ccc(O)cc1` [N-[5-(3-Dimethylaminobenzamido)-2-methylphenyl]-4-hydroxybenzamide], for which the “p38 kinase inhibitory activity” value with p38 kinase is recorded as “possess p38 kinase inhibitory activity”. With `Cc1ccc(NC(=O)c2ccc(C#N)cc2)cc1NC(=O)c1ccc(O)cc1` [Example 4, N-[5-(4-Cyanobenzamido)-2-methylphenyl]-4-hydroxybenzamide], the melting point lay within 297 to 299 °C. The same measure, in the same setting: next, `COc1ccc(C(=O)Nc2cc(NC(=O)c3cccc(Br)c3)ccc2C)cc1OC` [Example 6, N-[5-(3-bromobenzamido)-2-methylphenyl]-3,4-dimethoxybenzamide]: 136 to 138 °C; `COc1ccc(C(=O)Nc2cc(NC(=O)c3ccc(O)cc3)ccc2C)cc1OC` [Example 10, N-[5-(4-hydroxybenzamido)-2-methylphenyl]-3,4-dimethoxybenzamide]: 258 to 259 °C.
